Non-standard residues stand in square brackets, D forms with d. Residues, ends and D or L forms follow the SMILES beside them. No end group written: not given here. sY = N[C@@H](Cc1ccc(OS(=O)(=O)O)cc1)C(=O)O; pY = N[C@@H](Cc1ccc(OP(=O)(O)O)cc1)C(=O)O
T1: CCL21 (Homo sapiens, UniProt O00585)
T1 construct: Our previous NMR studies defined the 3D structure of full-length CCL21; made in house
T1 sequence (O00585 24-134): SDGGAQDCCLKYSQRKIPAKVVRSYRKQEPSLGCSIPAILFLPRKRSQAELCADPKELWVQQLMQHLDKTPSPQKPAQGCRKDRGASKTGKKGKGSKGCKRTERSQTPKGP

T2: CCR7 5–11 sY8 (Homo sapiens, N-terminus assumed; SMILES CC[C@H](C)[C@H](NC(=O)[C@H](Cc1ccc(OS(=O)(=O)O)cc1)NC(=O)[C@H](CC(=O)O)NC(=O)[C@H](CC(=O)O)NC(=O)[C@@H](N)[C@@H](C)O)C(=O)NCC(=O)N[C@@H](CC(=O)O)C(N)=O)
T2 chain: TDD[sY]IGD-NH2

T3: CCR7 5–11 (Homo sapiens)
T3 chain: TDDYIGD-NH2

T4: CCR7 5–11 pY8 (Homo sapiens, N-terminus assumed; SMILES CC[C@H](C)[C@H](NC(=O)[C@H](Cc1ccc(OP(=O)(O)O)cc1)NC(=O)[C@H](CC(=O)O)NC(=O)[C@H](CC(=O)O)NC(=O)[C@@H](N)[C@@H](C)O)C(=O)NCC(=O)N[C@@H](CC(=O)O)C(N)=O)
T4 chain: TDD[pY]IGD-NH2

B1: CCL21 (protein)
chain: SDGGAQDCCLKYSQRKIPAKVVRSYRKQEPSLGCSIPAILFLPRKRSQAELCADPKELWVQQLMQHLDKTPSPQKPAQGCRKDRGASKTGKKGKGSKGCKRTERSQTPKGP

Tests used:
CCL21 = biological target: T1, CCL21; assay: 15N-1H HSQC NMR titration of U-15N CCL21 with CCR7 N-terminal peptides; Kd by nonlinear fitting of chemical shift perturbations; assay type: binding; conditions: for Kd: 100 μM U-15N CCL21 titrated with peptide, NMR buffer 25 mM deuterated MES, 10% D2O, 0.2% NaN3, pH 6.0, 25 °C, fit of all CCL21 residues with significant chemical shift perturbations (11–30 sY17: only residues that did not broaden beyond detection), ± CI at 95% confidence level; for Kd, CCL21 K69 only (representative residue): nonlinear fitting of combined amide chemical shift perturbations of CCL21 residue K69 versus peptide concentration, 100 μM U-15N CCL21, pH 6.0, 25 °C
Procedure: NMR spectroscopic data were collected at the NMR facility at the Medical College of Wisconsin on a Bruker Avance 600 MHz spectrometer equipped with ^1H/^13C/^15N Cryoprobe® at 25 °C. Chemical shift assignments for CCR7 1–30 C24A (H, N, C, C^α, and most side chain carbons) were determined by standard techniques using 1.05 mM U-^15N/^13C labeled CCR7 1–30 C24A in NMR buffer (25 mM deuterated MES, 10% D2O, 0.2% NaN3, pH 6.0). To determine CCR7 N-terminal residues likely involved in CCL21 binding, 200 μM U-^15N/^13C CCR7 1–30 C24A in NMR buffer was monitored using ^15N-^1H HSQC spectra while titrating with increasing CCL21 concentrations (molar ratios of 1:0, 1:0.25, 1:0.5, 1:0.75, 1:1, 1:1.5, 1:2 and 1:2.5 of CCR7:CCL21).
To identify the impact of CCR7 tyrosine modification on CCL21 binding, 100 μM of U-^15N CCL21 in NMR buffer was titrated with increasing concentrations of the indicated CCR7 peptides and monitored using ^15N-^1H HSQC spectra, as previously described. […] Combined amide chemical shift perturbations (Δδ) were computed as [(5ΔδH)^2+(ΔδN)^2]^1/2, where ΔδH and ΔδN are the changes in backbone amide ^1H and ^15N chemical shifts in ppm, respectively. Dose-dependent changes in chemical shift perturbations upon titration with the various CCR7 peptides were used to determine dissociation constant (Kd) values through nonlinear fitting to an equation that takes into account ligand depletion, as previously described.

CCR7 5–11 sY8 = biological target: T2, CCR7 5–11 sY8; assay: NMR
CCR7 5–11 = biological target: T3, CCR7 5–11; assay: NMR
CCR7 5–11 pY8 = biological target: T4, CCR7 5–11 pY8; assay: NMR

| Molecule | Kd (CCL21) [µM] | also measured |
| --- | --- | --- |
| CC[C@H](C)[C@H](NC(=O)[C@H](Cc1ccc(OP(=O)(O)O)cc1)NC(=O)[C@H](CC(=O)O)NC(=O)[C@H](CC(=O)O)NC(=O)[C@@H](N)[C@@H](C)O)C(=O)NCC(=O)N[C@@H](CC(=O)O)C(N)=O [CCR7 5–11 pY8] (H-TDD[pY]IGD-NH2) | 240 ± 60 | – |
| CC[C@H](C)[C@H](NC(=O)[C@H](Cc1ccc(OS(=O)(=O)O)cc1)NC(=O)[C@H](CC(=O)O)NC(=O)[C@H](CC(=O)O)NC(=O)[C@@H](N)[C@@H](C)O)C(=O)NCC(=O)N[C@@H](CC(=O)O)C(N)=O [CCR7 5–11 sY8] (H-TDD[sY]IGD-NH2) | 140 ± 40 | Kd, CCL21 K69 only (representative residue) (CCL21): 180 ± 40 µM |
| CC(C)C[C@H](NC(=O)[C@H](CO)NC(=O)[C@H](CCC(=O)O)NC(=O)[C@H](Cc1ccccc1)NC(=O)[C@H](CC(C)C)NC(=O)[C@@H](NC(=O)[C@H](Cc1ccc(OP(=O)(O)O)cc1)NC(=O)[C@H](CC(=O)O)NC(=O)[C@@H](NC(=O)[C@@H](NC(=O)[C@@H](NC(=O)[C@H](CC(N)=O)NC(=O)[C@@H](N)CC(=O)O)[C@@H](C)O)[C@@H](C)O)C(C)C)[C@@H](C)O)C(=O)N[C@@H](C)C(=O)N[C@@H](CO)C(=O)N[C@@H](CCCCN)C(=O)N[C@@H](CCCCN)C(=O)N[C@@H](CC(=O)O)C(=O)N[C@H](C(=O)N[C@@H](CCCNC(=N)N)C(N)=O)C(C)C [CCR7 11–30 pY17] (H-DNTTVD[pY]TLFESLASKKDVR-NH2) | 1700 | – |
| CC(C)C[C@H](NC(=O)[C@H](CO)NC(=O)[C@H](CCC(=O)O)NC(=O)[C@H](Cc1ccccc1)NC(=O)[C@H](CC(C)C)NC(=O)[C@@H](NC(=O)[C@H](Cc1ccc(OS(=O)(=O)O)cc1)NC(=O)[C@H](CC(=O)O)NC(=O)[C@@H](NC(=O)[C@@H](NC(=O)[C@@H](NC(=O)[C@H](CC(N)=O)NC(=O)[C@@H](N)CC(=O)O)[C@@H](C)O)[C@@H](C)O)C(C)C)[C@@H](C)O)C(=O)N[C@@H](C)C(=O)N[C@@H](CO)C(=O)N[C@@H](CCCCN)C(=O)N[C@@H](CCCCN)C(=O)N[C@@H](CC(=O)O)C(=O)N[C@H](C(=O)N[C@@H](CCCNC(=N)N)C(N)=O)C(C)C [CCR7 11–30 sY17] (H-DNTTVD[sY]TLFESLASKKDVR-NH2) | 480 ± 70 | – |
| DNTTVDYTLFESLASKKDVR-NH2 [CCR7 11–30] | 6800 | – |
| TDDYIGD-NH2 [CCR7 5–11] | 700 ± 300 | Kd, CCL21 K69 only (representative residue) (CCL21): 530 ± 40 µM |
| B1 | – | Kd (CCR7 5–11 sY8): 140 µM; Kd (CCR7 5–11): 700 µM; Kd (CCR7 5–11 pY8): 240 µM |
